What was measured:
D2LR = D2LR (Homo sapiens (Human), UniProt P14416); experiment: β-Arrestin Recruitment Assay, CHO-K1 DRD2L; format: cell-based; conditions: antagonist vs EC80 6 nM Pergolide, CHO-K1 DRD2L cells; read-out: D2 IC50
Procedure: (§1) Antagonist potency of the compounds against agonist induced recruitment of β-arrestin by D3R and D2LR was measured using DiscoverRx PathHunter eXpress kits. […] After incubation at 37° C. for 90 min, the DiscoveRx detection reagent was added, the plates were incubated at room temperature for 60 min and the luminescence was measured on a Synergy 4 plate reader (BioTek). The data were plotted and the agonist EC80 values were calculated using GraphPad Prism software. For antagonist activity, the cells were plated as described above and treated with multiple concentrations (starting from 500 nM, half log dilution, 10 dose points) of the test compounds in Plating Reagent with 0.1% DMSO.

D3R [1] = molecular target: T1, D3R (Homo sapiens (Human), UniProt P35462); experiment: D3 Mitogenesis Functional Assay (3H-thymidine uptake, CHOp-D3 cells); format: cell-based
Summary of the method: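 CHO cells expressing human D3, serum-starved 24 h, then given compound (agonist mode) or antagonist plus 30 nM quinpirole final for 16 h at 37 °C. A 2 h [3H]thymidine pulse was used for uptake.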

[2] = molecular target: human D2 dopamine receptors (Homo sapiens (Human), UniProt P14416); experiment: Whole Cell Adenylyl Cyclase Assay, D2; format: cell-based; conditions: inhibition of forskolin (100 μM) stimulated cAMP, normalized to quinpirole; compound conc ≥10× Ki (per compound); mean ± S.E.M.
Procedure: The intrinsic activity of the compounds was evaluated by determining their ability to inhibit forskolin-dependent (100 μM) stimulation of adenylyl cyclase activity using a whole cell assay. A whole cell-cyclic AMP accumulation assay was performed with stably transfected HEK cells expressing human D2 or D3 dopamine receptors. This assay is an adaptation of an earlier published method (Su et al., Cyclic Nucleotide Res. 1976, 2, 257-285). Details regarding this method have been published (Chu, W. et al. Bioorg. Med. Chem. 2005, 13, 77-87; Taylor, M. et al. Synapse 2010, 64, 251-266). Confluent (60-80%) HEK cells transfected with recombinant D2-like dopamine receptors were grown in DMEM/10% fetal calf serum containing geneticin in […] flasks. The endogenous ATP pool is radioactively labeled by preincubating the cells in serum-free DMEM/25 mM Hepes medium containing 2 μCi/mL of [2,8-^3H]-adenine (20-Ci/mmol) in a 5% CO2 incubator at 37° C. for 75 min. The radioactive medium was removed by aspiration. Serum-free DMEM (5.6 mL) containing 25 mM HEPES, pH 7.4, and 0.1 mM of the phosphodiesterase inhibitor isobutylmethylxanthine was added to the flask. A […] aliquot of cells was removed and added to 50 μL of forskolin (100 μM) and 50 μL of test drug or quinpirole in DMEM-HEPES. The cells were incubated for 20 min at 37° C. (vortexing every 5 min). The reaction was terminated by the addition of 0.5 mL of 10% trichloroacetic acid (w/v) containing 1.0 mM unlabeled cyclic AMP as a recovery standard. Both the [^3H]-cyclic AMP and the [^3H]-ATP fractions were collected following separation using columns of Dowex AG-50W-X4 and alumina. The final yield of [^3H]-cyclic AMP is corrected for column recovery of unlabeled cyclic AMP determined spectrophotometrically (OD259). The results are reported as percent conversion of [^3H]-ATP into [^3H]-cyclic AMP. The values for the percent inhibition are reported as the actual percent of inhibition of the ^3H-cAMP accumulation relative to the assay performed in the absence of a test compound, minus basal activity. […] The percent maximum response is the value for the inhibition normalized to the value for the full agonist quinpirole.

human D2 receptors = human D2 receptors (Homo sapiens (Human), UniProt P14416); experiment: D2 Mitogenesis Functional Assay (3H-thymidine uptake, CHOp-D2 cells); format: cell-based
D3R [3] = molecular target: T1, D3R; experiment: β-Arrestin Recruitment Assay, U2OS DRD3; format: cell-based; conditions: for IC50: antagonist vs EC80 8 nM PD128907, U2OS DRD3 cells, read-out: D3 IC50; for D2 IC50/D3 IC50: ratio of β-arrestin IC50 values
Procedure: as §1

[4] = molecular target: T2, human D3 dopamine receptor (Homo sapiens (Human), UniProt P35462); experiment: Whole Cell Adenylyl Cyclase Assay, D3; format: cell-based; conditions: inhibition of forskolin (100 μM) stimulated cAMP, normalized to quinpirole; compound conc ≥10× Ki (per compound); mean ± S.E.M.
[5] = molecular target: T2, human D3 dopamine receptor; experiment: Radioligand binding (125I-IABN competition), D3; conditions: for Ki: 125I-IABN competition, HEK cell membranes expressing human D3; for D2/D3 (D3 selectivity ratio, D2 Ki/D3 Ki): calculated D2 Ki/D3 Ki
Procedure: (§2) The affinities of the target compounds were determined using radioligand binding experiments. […] Competition curves were modeled for a single site. Data from competition dose-response curves were analyzed using Tablecurve program (Jandel). IC50 values were converted to equilibrium dissociation constants (Ki values) using the Cheng and Prusoff correction.

[6] = molecular target: human D2-long dopamine receptor (Homo sapiens (Human), UniProt P14416); experiment: Radioligand binding (125I-IABN competition), D2; conditions: HEK cell membranes expressing human D2-long
Procedure: as §2

Chain of human D2 receptors (P14416 whole entry): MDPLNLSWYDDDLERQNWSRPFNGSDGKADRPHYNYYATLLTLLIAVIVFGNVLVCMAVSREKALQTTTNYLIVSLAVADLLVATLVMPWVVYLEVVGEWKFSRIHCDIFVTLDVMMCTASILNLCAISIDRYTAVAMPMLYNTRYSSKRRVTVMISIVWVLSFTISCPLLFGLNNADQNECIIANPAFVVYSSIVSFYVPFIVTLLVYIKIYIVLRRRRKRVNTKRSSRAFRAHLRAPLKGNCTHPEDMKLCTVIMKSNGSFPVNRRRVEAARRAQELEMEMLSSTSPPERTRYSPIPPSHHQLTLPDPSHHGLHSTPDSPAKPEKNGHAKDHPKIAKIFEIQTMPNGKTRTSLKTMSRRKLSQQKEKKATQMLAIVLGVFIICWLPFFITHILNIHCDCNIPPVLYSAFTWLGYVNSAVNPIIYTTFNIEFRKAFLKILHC
T2 sequence (P35462 whole entry): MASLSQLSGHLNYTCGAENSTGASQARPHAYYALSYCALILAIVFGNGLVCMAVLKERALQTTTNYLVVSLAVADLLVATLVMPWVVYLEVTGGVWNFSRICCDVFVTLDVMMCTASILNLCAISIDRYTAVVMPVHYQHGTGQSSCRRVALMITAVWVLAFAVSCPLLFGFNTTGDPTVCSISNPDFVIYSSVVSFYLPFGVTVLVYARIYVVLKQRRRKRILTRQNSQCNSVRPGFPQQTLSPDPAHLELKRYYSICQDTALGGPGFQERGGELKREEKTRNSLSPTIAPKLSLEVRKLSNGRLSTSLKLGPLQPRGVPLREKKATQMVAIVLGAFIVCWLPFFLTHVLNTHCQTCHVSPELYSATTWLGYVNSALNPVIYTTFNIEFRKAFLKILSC
T1 sequence (P35462 whole entry): as above
Chain of D2LR (P14416 whole entry): as the sequence (P14416 whole entry) above
Chain of human D2-long dopamine receptor (P14416 whole entry): as above
Chain of human D2 dopamine receptors (P14416 whole entry): as above

Row | EC50 (D3R [1]; CHOp-D3 cells, stimulation of mitogenesis, read-out: D3 Agonist EC50) | Emax at 10 µM (D3R [1]; at 10 μM, % maximum stimulation vs quinpirole (100%), read-out: D3 Agonist Emax) | D3 Antagonist Imax (D3R [1]; inhibition of quinpirole stimulation of mitogenesis) | IC50 (D3R [1]; read-out: D3 Antagonist IC50) | EC50 (human D2 receptors; CHOp-D2 cells, stimulation of mitogenesis, read-out: D2 Agonist EC50) | Emax at 10 µM (human D2 receptors; at 10 μM, % maximum stimulation vs quinpirole (100%), read-out: D2 Agonist Emax) | D2 Antagonist Imax (human D2 receptors; at 10 μM, inhibition of quinpirole stimulation of mitogenesis) | IC50 (human D2 receptors; read-out: D2 Antagonist IC50) | SMILES | IC50 (D2LR) | D2 Cyclase % Inhibition Normalized [2] | IC50 (D3R [3]) | D2 IC50/D3 IC50 (D3R [3]) | D3 Cyclase % Inhibition Normalized [4] | Ki [5] | D2/D3 (D3 selectivity ratio, D2 Ki/D3 Ki) [5] | Ki [6]
1 | > 10000 nM | 3% | 88.2% | 125 ± 37 nM | > 10000 nM | < 1% | 100% at 10 μM | 440 ± 160 nM | CC(C)(C)c1nc(N2CCN(CCCCNC(=O)N3CCN(c4ccccc4)CC3)CC2)cc(C(F)(F)F)n1 [Compound 8, N-(4-(4-(2-(tert-Butyl)-6-(trifluoromethyl)pyrimidin-4-yl)piperazin-1-yl)butyl)-4-phenylpiperazine-1-carboxamide] | > 500 nM | −4.8 ± 4.1% | 6.15 ± 0.33 nM | >81 | 60.7 ± 10.7% | 2.7 ± 0.7 nM | 174 | 470 ± 34 nM
2 |  |  |  |  |  |  |  |  | CN(C)Cc1c(C(=O)NCCCCN2CCN(c3cc(C(F)(F)F)nc(C(C)(C)C)n3)CC2)nc2ccccn12 [Compound 120, N-(4-(4-(2-(tert-Butyl)-6-(trifluoromethyl)pyrimidin-4-yl)piperazin-1-yl)butyl)-3-((dimethylamino)methyl)imidazo[1,2-a]pyridine-2-carboxamide] | 217 ± 10 nM | 8.9 ± 5.0% | 7.2 ± 3.68 nM | 30 | 47.4 ± 4.4% | 28.8 ± 6.1 nM | 10 | 301 nM

Reference: patent publication US9598387B2 (Southern Research Institute, priority 2012, dated 2017)
